Drawing on the NIST ThermoML archive (doi:10.1021/acs.jced.9b00173), this text covers viscosity for six compounds.

± gives the expanded uncertainty stated by the source.

The series can be described thus: xn = mol fraction of the nth substance listed. The settings on record: 303.15 K, 101.3 kPa, Liquid, Concentric cylinders viscometry.

By viscosity is commonly meant the resistance of a fluid to flow. In the case of `c1nnn[nH]1` [1H-tetrazole] + CCCC[P+](CCCC)(CCCC)CCCC.[Cl-], where the note is “x1 = 0.5”, the viscosity was determined as 40.22 ± 1.5 mPa·s.

Regarding `c1nnn[nH]1` [1H-tetrazole] + CCCC[N+](CCCC)(CCCC)CCCC.[Cl-], the viscosity (x1 = 0.5) was 87.88 ± 2.8 mPa·s. As to `c1nc[nH]n1` [1H-1,2,4-triazole] + CCCC[P+](CCCC)(CCCC)CCCC.[Cl-], the viscosity (x1 = 0.5) is reported as 67.23 ± 2 mPa·s. As for `CCCC[P+](CCCC)(CCCC)CCCC.[Cl-]` [tetrabutylphosphonium chloride] + c1c[nH]cn1, the viscosity (x2 = 0.5) stood at 52.34 ± 1.6 mPa·s.

For the compound `c1nnn[nH]1` [1H-tetrazole] + CCCC[N+](CCCC)(CCCC)CCCC.[Br-], the viscosity (x1 = 0.5) is listed as 279.15 ± 15 mPa·s. Same read-out and setting: the result for `c1nnn[nH]1` [1H-tetrazole] + CCCC[P+](CCCC)(CCCC)CCCC.[Br-] reads 68.26 ± 2.1 mPa·s.
